Laboratory results reported in patent publication US10709788B2, “Chitosan magnetic particle drug carrier, drug structure, and method of making” (GENE'E TECH CO., LTD., priority 2018, dated 2020).
Values after ≈ are worked out from the molar mass of the structure shown. Read-outs that look alike come from different tables or passages of the source.

Columns and labels:
[1] = tested on: H. pylori; assay: minimum inhibitory concentrations (MIC) for seven strains of H. pylori; format: cell-based; conditions: Helicobacter pylori, read-out: minimum inhibitory concentration (MIC)
[2] = tested on: H. pylori; assay: Test of inhibition of H. pylori by drug structure (OD 450 nm, bacterial inhibition rate); format: cell-based; conditions: seven strains; added at minimum inhibitory concentration; 37° C., anaerobic, 48 hours
Protocol: First, bacterial fluids of seven different strains of H. pylori are provided. […] The bacterial fluids of the seven different strains of H. pylori are placed in four 15 ml microcentrifuge tubes, respectively. Each microcentrifuge tube contains 5 ml of H. pylori bacterial fluid. The four microcentrifuge tubes are defined as experimental group 1, experimental group 2, experimental group 3 and control group, respectively. Then, amoxicillin of the minimum inhibitory concentration is added to experimental group 1 of each strain of H. pylori, sample 3 (i.e., drug carrier) of the minimum inhibitory concentration is added to experimental group 2 of each strain of H. pylori, sample C (i.e., drug structure) of amoxicillin of the minimum inhibitory concentration is added to experimental group 3 of each strain of H. pylori, and nothing is added to the control group. Afterward, experimental groups 1-3 and control group of each strain of H. pylori are placed in an incubator to be cultured therein at 37° C., in an anaerobic environment, and for 48 hours. At the end of the 48-hour culturing process, bacterial fluids are extracted from the experimental groups 1-3 and control group of the strains of H. pylori, respectively. OD values of the bacterial fluid of the experimental groups and the bacterial fluid of the control group are measured with a spectrophotometer at a wavelength of 450 nm. […]

MIC ([1]; H. pylori strain NO. 125-54): 0.5 µg/mL (≈ 1.37 µM) | MIC ([1]; H. pylori strain NO. 125-56): 0.25 µg/mL (≈ 0.684 µM) | MIC ([1]; H. pylori strain NO. 125-57): 0.25 µg/mL (≈ 0.684 µM) | MIC ([1]; H. pylori strain NO. 126-6): 0.016 µg/mL (≈ 0.0438 µM) | MIC ([1]; H. pylori strain NO. 127-4): 0.0625 µg/mL (≈ 0.171 µM) | MIC ([1]; H. pylori strain NO. 127-9): 0.0625 µg/mL (≈ 0.171 µM) | MIC ([1]; H. pylori strain NO. 127-10): 0.125 µg/mL (≈ 0.342 µM)
SMILES: CC1(C)S[C@@H]2[C@H](NC(=O)[C@H](N)c3ccc(O)cc3)C(=O)N2[C@H]1C(=O)O [amoxicillin]
inhibitory effect on H. pylori [2]: different degrees of inhibition efficacy
